Like-named read-outs stand apart in the source and are kept apart here.
Tests used:
[1] = tested on: patients with HD
Description: There are six basic ADLs: eating, bathing, dressing, toileting, transferring (functional mobility) and continence. ADL is scored as follows: a patient requiring total care=0, a patient able to carry out gross tasks only=1, a patient having minimal impairment=2, a patient with no impairment (normal)=3.
The TFC scale of the UHDRS is a standardized scale used to assess 5 functional domains associated with disability shown below (occupation, finances, domestic chores (e.g. laundry, washing dishes), activities of daily living, and care level). The TFC score has a range of 0-13 and is a well-established endpoint for trials aiming disease progression. […] The TFC score is accepted by regulators and often considered the most widely accepted tool for disease procession in HD patients. Additionally, TFC is considered the gold standard for measuring HD rate of functional decline. […] The floor and ceiling effects make TFC scores more sensitive to change in early stage HD than in late stage HD.
Activities of Daily Living (ADL): 0=total care, 1=gross tasks only, 2=minimal impairment, 3=normal.

[2] = tested on: patients with HD; remark: listed apart in the source
Description: The CAB may be used to detect symptomatic, “pro-cognitive” effects (6 months-1 year) and slowing rate of cognitive decline (>1 year). […] The CAB covers domains most impacted in HD, using tests with good psychometric properties. The following six sections describe the tests that are part of the CAB brief. • 1. Symbol Digit Modalities Test
The HVLT-R offers a brief assessment of verbal learning and memory (recognition and recall). […] Its use has been validated with brain-disordered populations (e.g., Alzheimer's disease, HD, amnestic disorders) as a measure of verbal learning and memory. […] The semantic categories differ across the 6 forms, but the forms are very similar in their psychometric properties. Raw scores are derived for Total Recall, Delayed Recall, Retention (% retained), and a Recognition Discrimination Index. The HVLT-R has high test-retest reliability, and its construct, concurrent, and discriminant validity have been well established. Raw scores are derived for Learning Trials 1-3 (i.e., Total Recall) and Trial 4 (e.g., Delayed Recall Trial). • 5. Paced Tapping test

CCCN1CCC(c2cccc(S(C)(=O)=O)c2)CC1 [pridopidine, 4-[3-(methylsulfonyl)phenyl]-1-propyl-piperidine]
UHDRS TFC ADL, change from baseline, Δ to placebo ([1]; 45 mg bid, Week 26, BL TFC≥7, p value 0.0176): 0.24
Change from baseline in UHDRS TFC ADL, Δ to Placebo ([1]; 45 mg bid, Week 26, Stage 1 BL TFC 11-13): 0.65
Change from baseline in UHDRS TFC ADL, Δ to Placebo ([1]; 45 mg bid, Week 52, ALL): 0.14
UHDRS TFC ADL, change from baseline, Δ to placebo ([1]; 45 mg bid, Week 52, BL TFC<7, p value 0.178): −0.33
UHDRS TFC ADL, change from baseline, Wk 52 Δ to placebo ([1]; 45 mg bid, Week 52, BL TFC≥7, p value 0.0019): 0.35
Change from baseline in UHDRS TFC ADL, Δ to Placebo ([1]; 45 mg bid, Week 52, Stage 1 BL TFC 11-13): 0.62
Change from baseline in UHDRS TFC ADL, Δ to Placebo ([1]; 45 mg bid, Week 52, Stage 2 BL TFC 7-10): 0.27
Change from baseline in UHDRS TFC ADL, Δ to Placebo ([1]; 67.5 mg bid, Week 26, ALL): 0.09
UHDRS TFC ADL, change from baseline, Δ to placebo ([1]; 67.5 mg bid, Week 26, BL TFC<7, p value 0.8518): −0.04
UHDRS TFC ADL, change from baseline, Δ to placebo ([1]; 67.5 mg bid, Week 26, BL TFC≥7, p value 0.1132): 0.16
Change from baseline in UHDRS TFC ADL, Δ to Placebo ([1]; 67.5 mg bid, Week 26, Stage 1 BL TFC 11-13): 0.34
Change from baseline in UHDRS TFC ADL, Δ to Placebo ([1]; 67.5 mg bid, Week 52, ALL): 0.03
UHDRS TFC ADL, change from baseline, Δ to placebo ([1]; 67.5 mg bid, Week 52, BL TFC<7, p value 0.0671): −0.4
UHDRS TFC ADL, change from baseline, Wk 52 Δ to placebo ([1]; 67.5 mg bid, Week 52, BL TFC≥7, p value 0.0598): 0.22
Change from baseline in UHDRS TFC ADL, Δ to Placebo ([1]; 67.5 mg bid, Week 52, Stage 1 BL TFC 11-13): 0.21
Change from baseline in UHDRS TFC ADL, Δ to Placebo ([1]; 67.5 mg bid, Week 52, Stage 2 BL TFC 7-10): 0.31
Change from baseline in UHDRS TFC ADL, Δ to Placebo ([1]; 90 mg bid, Week 26, ALL): 0.14
UHDRS TFC ADL, change from baseline, Δ to placebo ([1]; 90 mg bid, Week 26, BL TFC<7, p value 0.3507): 0.18
UHDRS TFC ADL, change from baseline, Δ to placebo ([1]; 90 mg bid, Week 26, BL TFC≥7, p value 0.0526): 0.19
Change from baseline in UHDRS TFC ADL, Δ to Placebo ([1]; 90 mg bid, Week 26, Stage 1 BL TFC 11-13): 0.58
Change from baseline in UHDRS TFC ADL, Δ to Placebo ([1]; 90 mg bid, Week 52, ALL): −0.01
UHDRS TFC ADL, change from baseline, Δ to placebo ([1]; 90 mg bid, Week 52, BL TFC<7, p value 0.073): −0.39
UHDRS TFC ADL, change from baseline, Wk 52 Δ to placebo ([1]; 90 mg bid, Week 52, BL TFC≥7, p value 0.0545): 0.21
Change from baseline in UHDRS TFC ADL, Δ to Placebo ([1]; 90 mg bid, Week 52, Stage 1 BL TFC 11-13): 0.42
Change from baseline in UHDRS TFC ADL, Δ to Placebo ([1]; 90 mg bid, Week 52, Stage 2 BL TFC 7-10): 0.16
Change from baseline in UHDRS TFC ADL, Δ to Placebo ([1]; 112.5 mg bid, Week 26, ALL): 0.17
UHDRS TFC ADL, change from baseline, Δ to placebo ([1]; 112.5 mg bid, Week 26, BL TFC<7, p value 0.8438): −0.04
UHDRS TFC ADL, change from baseline, Δ to placebo ([1]; 112.5 mg bid, Week 26, BL TFC≥7, p value 0.0076): 0.27
Change from baseline in UHDRS TFC ADL, Δ to Placebo ([1]; 112.5 mg bid, Week 26, Stage 1 BL TFC 11-13): 0.7
Change from baseline in UHDRS TFC ADL, Δ to Placebo ([1]; 112.5 mg bid, Week 52, ALL): 0.03
UHDRS TFC ADL, change from baseline, Δ to placebo ([1]; 112.5 mg bid, Week 52, BL TFC<7, p value 0.1393): −0.32
UHDRS TFC ADL, change from baseline, Wk 52 Δ to placebo ([1]; 112.5 mg bid, Week 52, BL TFC≥7, p value 0.0493): 0.23
Change from baseline in UHDRS TFC ADL, Δ to Placebo ([1]; 112.5 mg bid, Week 52, Stage 1 BL TFC 11-13): 0.46
Change from baseline in UHDRS TFC ADL, Δ to Placebo ([1]; 112.5 mg bid, Week 52, Stage 2 BL TFC 7-10): 0.15
Δ to placebo: CAB HVLT-R score, change from baseline ([2]; 45 mg bid, week 26): −0.53
Δ to placebo: CAB HVLT-R score, change from baseline ([2]; 45 mg bid, week 52): −2.21
Δ to placebo: CAB HVLT-R score, change from baseline ([2]; 67.5 mg bid, week 26): 0.15
Δ to placebo: CAB HVLT-R score, change from baseline ([2]; 67.5 mg bid, week 52): −2.74
Δ to placebo: CAB HVLT-R score, change from baseline ([2]; 90 mg bid, week 26): −0.73
Δ to placebo: CAB HVLT-R score, change from baseline ([2]; 90 mg bid, week 52): −1.07
Δ to placebo: CAB HVLT-R score, change from baseline ([2]; 112.5 mg bid, week 26): −0.47
Δ to placebo: CAB HVLT-R score, change from baseline ([2]; 112.5 mg bid, week 52): −2.19

Source: US11207310B2 (PRILENIA NEUROTHERAPEUTICS LTD., priority 2016, dated 2021)
